Source: patent US8273852B2, “Medium chain length polyhydroxyalkanoate polymer and method of making same” (Queen's University at Kingston, priority 2009, dated 2012)

What was measured:
[1] = tested on: β-oxidation pathway; assay: Continuous fermentation, cofeeding of nonanoic acid and glucose, increasing acrylic acid; type: cell-based, Pseudomonas putida KT2440; conditions: inhibitor concentration increased from 0 to 0.15 g/L; value at highest concentration
Experimental: (§1) Continuous fermentations were carried out in a 1.5 L stirred tank bioreactor (Bioflo IIc, New Brunswick Scientific, N.J., USA) with a working volume of 1.1 L. The fermentor was operated at 28.5±1° C. and the pH was automatically controlled at 6.85±0.05 using 2 N potassium hydroxide solution. The dissolved oxygen was monitored with an Ingold polarographic probe (available from Mettler-Toledo Ingold Inc., Bedford, Mass., USA) and maintained no lower than 30% air saturation with an aeration rate of 0.8 vvm (void volumes per minute) and an agitation speed up to 900 rpm. Nonanoic acid was fed separately at controlled speed by a peristaltic nutrient pump on the bioreactor. All other aqueous medium was mixed and fed together. The dilution rate of all continuous fermentations was controlled at […] by fixing the working volume and a constant aqueous medium feeding rate.
During shake flask, batch, fed-batch, or continuous cultivations, fermentation broth samples were taken. Known amounts of such broths were centrifuged to obtain the medium's supernatant and concentrated biomass. […]
(§2) Dried samples were weighed to obtain dry biomass amounts. PHA content and composition were determined by gas chromatographic method as described below (Sun, Z., et al. (2007). Appl. Microbiol. Biotechnol., 74:69). […]

[2] = tested on: β-oxidation pathway; assay: Continuous fermentation, nonanoic acid as sole carbon source, increasing acrylic acid; type: cell-based, Pseudomonas putida KT2440
Experimental: as §1
(§3) During shake flask, batch, fed-batch, or continuous cultivations, fermentation broth samples were taken. Known amounts of such broths were centrifuged to obtain the medium's supernatant and concentrated biomass. The biomasses were washed with distilled water, centrifuged again, re-suspended, frozen, and lyophilized to obtain dried biomass. The supernatant was used to analyze carbon source, inhibitor, and nutrient concentration. […]
as §2
(§4) Known amount of dried biomass, or purified MCL-PHA, or MCL-PHA standard with known composition and elution time of each of its components, were reacted in 2 mL chloroform plus 1 mL methanol containing 15% (v/v) concentrated sulfuric acid as acidifying agent and 0.2% (w/v) benzoic acid as internal standard, at 100° C. for 4 hours. […] Methyl-3-hydroxyalkanoate was identified and its molar amount was calculated by comparing peak area to the corresponding peak of known methyl-3-hydroxyalkanoate generated from known MCL-PHA standard, which was characterized by NMR and GC/MS. […]

[3] = tested on: β-oxidation pathway; assay: Continuous fermentation, cofeeding of octanoic acid and glucose, increasing acrylic acid; type: cell-based, Pseudomonas putida KT2440; conditions: inflow acrylic acid 0.2 g/L
Experimental: as §1, with “Nonanoic acid was fed separately at controlled speed by a peristaltic nutrient pump on the bioreactor.” left out
as §3, with “biomass.” for “biomass. The supernatant was used to analyze carbon source, inhibitor, and nutrient concentration.”
as §2

[4] = tested on: Pseudomonas putida KT2440; assay: Shake flask growth with acrylic acid, absorbance at 650 nm; type: cell-based; conditions: shake flasks
Experimental: A basic glucose-only shake flask medium was a 100 mL liquid medium in a 500 mL Erlenmeyer flask. The medium comprised (g L^−1): (NH4)2SO4 (4.70), MgSO4.7H2O (0.80), Na2HPO4.7H2O (12.0), KH2PO4 (2.70), glucose (9.0), nutrient broth (1.0).
The effect of acrylic acid on cell growth was determined using Pseudomonas putida KT2440 (ATCC 47054). Pseudonomas putida KT2440 (ATCC 47054) was maintained on nutrient agar plates at 4° C. before inoculation. The toxicity of a β-oxidation inhibitor, acrylic acid, to the growth of Pseudomonas putida KT2440 was determined by shake flask experiment. The cultivation conditions were 28° C. in a New Brunswick Shaker-Incubator at 200 rpm. The medium used was the basic glucose-only shake flask medium described above, plus appropriate amount of acrylic acid.
500 mL Erlenmeyer flasks were used with each containing 100 mL of medium. In addition to the basic medium described above, increasing concentrations of acrylic acid (AA) at 0, 0.2, 0.4, 0.8, 2.0 g/L were prepared in each flask. The first set of such flasks was cultured for 12 h and the second set of such flasks was cultured for 24 h. After the specified culturing time, a sample was taken to measure the absorbance at 650 nm in the spectrophotometer.

[5] = tested on: β-oxidation pathway; assay: Fed-batch fermentation, cofeeding of nonanoic acid, glucose and acrylic acid; type: cell-based, Pseudomonas putida KT2440; conditions: nonanoic acid:glucose:acrylic acid 1.25:1:0.03 (w/w/w); by GC; throughout 32 hours fermentation
Experimental: Fed-batch fermentations were conducted in a 5 L stirred tank bioreactor with 3 L working volume (Minifors, INFORS HT, Bottmingen, Switzerland). The specific growth rate was controlled at 0.25 h^−1 or 0.15 h^−1 by exponentially feeding the carbon sources as growth-limiting nutrients. β-oxidation inhibitor was added with the glucose feeding solution at a fixed mass as specified in the related examples. […]
as §2, §4

[6] = tested on: β-oxidation pathway; assay: Continuous fermentation, cofeeding of dodecanoic acid and glucose, increasing acrylic acid; type: cell-based, Pseudomonas putida KT2440
Experimental: as §1, with “Nonanoic acid was fed separately at controlled speed by a peristaltic nutrient pump on the bioreactor.” left out
During shake flask, batch, fed-batch, or continuous cultivations, fermentation broth samples were taken. Known amounts of such broths were centrifuged to obtain the medium's supernatant and concentrated biomass. The biomasses were washed with distilled water, centrifuged again, re-suspended, frozen, and lyophilized to obtain dried biomass. The supernatant was used to analyze carbon source, inhibitor, and nutrient concentration. The dried biomass was used to obtain the cell concentration, cellular PHA content and composition.
as §2, §4

C=CC(=O)O [acrylic acid]
intracellular PHN content [1]: ~64%
mole percentage of C9 [1]: 96 mol %
PHA content ([2]; acrylic acid 0.2 g L^−1, nonanoic acid only carbon source): very little PHA content
molar C9 fraction of the PHA produced ([2]; at increased inhibitor concentration, nonanoic acid only, maximum reached): about 90%
acrylic acid concentration that affected monomeric composition ([2]; inflow concentration, nonanoic acid only, steady state): 0.02 g/L
mole percentage of C8 [3]: 98 mol %
reduction of Absorbance at λ=650 nm ([4]; acrylic acid 0.2 g L^−1, 12 h and 24 h cultures, glucose medium): two fold
cell growth ([4]; acrylic acid greater than 0.4 g L^−1): either weak growth or no growth
monomeric composition, C9 (3-OH-nonanoate) [5]: 87.8±0.8 mol %
mole percentage of C12 ([6]; inflow acrylic acid 0.2 g/L (FIG. 10B)): 60 mol %
molar C12 content ([6]; inlet acrylic acid 0.1 g L^−1): 34.5%
molar C12 content ([6]; inlet acrylic acid 0.2 g L^−1): 59%
